Data: ChEMBL document CHEMBL1743141, “Membrane transporters in drug development” (Nat Rev Drug Discov, 2010)
One block for each molecule: values may come before it.

Experiments:
Assay type in all cases: ADME
[1] = target: T1, Broad substrate specificity ATP-binding cassette transporter ABCG2 (Homo sapiens, UniProt Q9UNQ0); assay: Inhibitors of transporters of clinical importance in the absorption and disposition of drugs, BCRP
T1 sequence (Q9UNQ0 whole entry): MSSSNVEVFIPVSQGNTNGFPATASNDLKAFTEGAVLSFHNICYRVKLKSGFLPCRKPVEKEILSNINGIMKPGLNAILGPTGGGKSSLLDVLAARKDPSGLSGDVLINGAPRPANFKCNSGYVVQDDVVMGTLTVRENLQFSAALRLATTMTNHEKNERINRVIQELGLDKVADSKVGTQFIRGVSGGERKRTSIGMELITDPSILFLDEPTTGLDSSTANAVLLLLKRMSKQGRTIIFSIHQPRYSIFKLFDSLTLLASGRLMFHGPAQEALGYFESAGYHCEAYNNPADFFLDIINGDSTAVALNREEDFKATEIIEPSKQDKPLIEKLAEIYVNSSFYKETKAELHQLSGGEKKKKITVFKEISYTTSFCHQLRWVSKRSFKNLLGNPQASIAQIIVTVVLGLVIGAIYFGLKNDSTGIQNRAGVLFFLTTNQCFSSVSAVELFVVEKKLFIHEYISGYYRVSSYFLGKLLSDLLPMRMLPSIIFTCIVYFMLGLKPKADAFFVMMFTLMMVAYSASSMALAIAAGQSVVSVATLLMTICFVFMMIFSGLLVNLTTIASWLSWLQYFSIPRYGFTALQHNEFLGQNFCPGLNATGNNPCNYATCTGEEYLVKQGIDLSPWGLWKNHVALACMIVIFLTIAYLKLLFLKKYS

[2] = target: T2, Solute carrier organic anion transporter family member 1A2 (Homo sapiens, UniProt P46721); assay: Substrates of transporters of clinical importance in the absorption and disposition of drugs, OATP1A2
T2 sequence (P46721 whole entry): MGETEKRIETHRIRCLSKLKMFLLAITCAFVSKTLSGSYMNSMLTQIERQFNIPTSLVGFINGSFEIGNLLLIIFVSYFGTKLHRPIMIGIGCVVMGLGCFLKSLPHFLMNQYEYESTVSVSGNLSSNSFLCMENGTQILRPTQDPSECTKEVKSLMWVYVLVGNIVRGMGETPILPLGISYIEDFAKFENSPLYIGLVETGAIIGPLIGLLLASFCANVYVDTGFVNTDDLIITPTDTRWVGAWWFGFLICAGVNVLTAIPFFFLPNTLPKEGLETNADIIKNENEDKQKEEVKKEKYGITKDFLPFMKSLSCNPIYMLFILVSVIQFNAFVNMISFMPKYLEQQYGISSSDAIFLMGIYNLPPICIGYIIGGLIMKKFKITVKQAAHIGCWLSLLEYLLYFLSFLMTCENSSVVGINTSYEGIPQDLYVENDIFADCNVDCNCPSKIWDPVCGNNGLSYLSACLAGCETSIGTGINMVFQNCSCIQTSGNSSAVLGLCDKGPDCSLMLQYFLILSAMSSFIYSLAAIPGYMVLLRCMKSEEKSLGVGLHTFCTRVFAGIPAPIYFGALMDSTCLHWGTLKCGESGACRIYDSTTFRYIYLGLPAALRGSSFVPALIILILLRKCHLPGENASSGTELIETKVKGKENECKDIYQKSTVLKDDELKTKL

[3] = target: T1, Broad substrate specificity ATP-binding cassette transporter ABCG2; assay: Substrates of transporters of clinical importance in the absorption and disposition of drugs, BCRP
[4] = target: T3, ATP-binding cassette sub-family C member 2 (Homo sapiens, UniProt Q92887); assay: Substrates of transporters of clinical importance in the absorption and disposition of drugs, MRP2
T3 sequence (Q92887 whole entry): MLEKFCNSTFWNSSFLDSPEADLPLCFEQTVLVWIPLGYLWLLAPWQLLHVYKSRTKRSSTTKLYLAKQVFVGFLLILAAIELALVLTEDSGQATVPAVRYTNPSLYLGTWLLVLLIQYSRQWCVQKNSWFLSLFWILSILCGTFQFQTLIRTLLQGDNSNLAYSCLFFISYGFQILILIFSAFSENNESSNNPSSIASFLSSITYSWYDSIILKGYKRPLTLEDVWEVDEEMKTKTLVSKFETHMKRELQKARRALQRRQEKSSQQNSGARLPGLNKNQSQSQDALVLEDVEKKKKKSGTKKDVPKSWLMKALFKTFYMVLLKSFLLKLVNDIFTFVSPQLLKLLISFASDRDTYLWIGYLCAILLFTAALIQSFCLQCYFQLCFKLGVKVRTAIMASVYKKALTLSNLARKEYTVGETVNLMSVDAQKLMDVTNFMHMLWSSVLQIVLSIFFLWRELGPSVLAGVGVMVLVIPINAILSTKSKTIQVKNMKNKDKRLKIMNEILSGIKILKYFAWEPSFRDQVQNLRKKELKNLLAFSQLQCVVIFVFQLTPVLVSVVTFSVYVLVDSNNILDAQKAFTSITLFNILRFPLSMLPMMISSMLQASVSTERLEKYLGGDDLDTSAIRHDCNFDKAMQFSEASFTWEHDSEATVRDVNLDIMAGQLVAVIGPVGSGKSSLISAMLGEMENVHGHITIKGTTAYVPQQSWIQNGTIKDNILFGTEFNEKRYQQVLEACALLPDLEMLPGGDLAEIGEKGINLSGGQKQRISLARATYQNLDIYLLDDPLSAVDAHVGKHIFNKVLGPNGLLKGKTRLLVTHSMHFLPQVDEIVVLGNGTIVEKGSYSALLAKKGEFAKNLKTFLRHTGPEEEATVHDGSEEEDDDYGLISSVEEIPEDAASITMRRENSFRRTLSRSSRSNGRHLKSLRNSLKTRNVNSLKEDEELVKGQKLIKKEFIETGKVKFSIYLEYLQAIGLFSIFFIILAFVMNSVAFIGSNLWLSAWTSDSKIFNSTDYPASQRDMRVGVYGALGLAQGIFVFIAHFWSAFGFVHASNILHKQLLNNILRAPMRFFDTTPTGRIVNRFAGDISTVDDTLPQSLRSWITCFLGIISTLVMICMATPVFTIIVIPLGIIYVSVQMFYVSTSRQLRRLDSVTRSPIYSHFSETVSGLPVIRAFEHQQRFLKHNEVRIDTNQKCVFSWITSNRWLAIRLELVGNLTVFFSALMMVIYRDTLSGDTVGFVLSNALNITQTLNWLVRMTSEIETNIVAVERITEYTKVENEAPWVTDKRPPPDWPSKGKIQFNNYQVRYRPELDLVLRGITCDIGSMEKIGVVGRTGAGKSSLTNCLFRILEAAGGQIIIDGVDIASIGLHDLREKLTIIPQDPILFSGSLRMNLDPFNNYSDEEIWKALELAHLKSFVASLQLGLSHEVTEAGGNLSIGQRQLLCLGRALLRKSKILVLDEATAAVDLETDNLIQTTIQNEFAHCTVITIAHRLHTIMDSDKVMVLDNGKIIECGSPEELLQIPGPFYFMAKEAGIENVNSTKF

[5] = target: T4, ATP-binding cassette sub-family C member 3 (Homo sapiens, UniProt O15438); assay: Substrates of transporters of clinical importance in the absorption and disposition of drugs, MPR3
T4 sequence (O15438 whole entry): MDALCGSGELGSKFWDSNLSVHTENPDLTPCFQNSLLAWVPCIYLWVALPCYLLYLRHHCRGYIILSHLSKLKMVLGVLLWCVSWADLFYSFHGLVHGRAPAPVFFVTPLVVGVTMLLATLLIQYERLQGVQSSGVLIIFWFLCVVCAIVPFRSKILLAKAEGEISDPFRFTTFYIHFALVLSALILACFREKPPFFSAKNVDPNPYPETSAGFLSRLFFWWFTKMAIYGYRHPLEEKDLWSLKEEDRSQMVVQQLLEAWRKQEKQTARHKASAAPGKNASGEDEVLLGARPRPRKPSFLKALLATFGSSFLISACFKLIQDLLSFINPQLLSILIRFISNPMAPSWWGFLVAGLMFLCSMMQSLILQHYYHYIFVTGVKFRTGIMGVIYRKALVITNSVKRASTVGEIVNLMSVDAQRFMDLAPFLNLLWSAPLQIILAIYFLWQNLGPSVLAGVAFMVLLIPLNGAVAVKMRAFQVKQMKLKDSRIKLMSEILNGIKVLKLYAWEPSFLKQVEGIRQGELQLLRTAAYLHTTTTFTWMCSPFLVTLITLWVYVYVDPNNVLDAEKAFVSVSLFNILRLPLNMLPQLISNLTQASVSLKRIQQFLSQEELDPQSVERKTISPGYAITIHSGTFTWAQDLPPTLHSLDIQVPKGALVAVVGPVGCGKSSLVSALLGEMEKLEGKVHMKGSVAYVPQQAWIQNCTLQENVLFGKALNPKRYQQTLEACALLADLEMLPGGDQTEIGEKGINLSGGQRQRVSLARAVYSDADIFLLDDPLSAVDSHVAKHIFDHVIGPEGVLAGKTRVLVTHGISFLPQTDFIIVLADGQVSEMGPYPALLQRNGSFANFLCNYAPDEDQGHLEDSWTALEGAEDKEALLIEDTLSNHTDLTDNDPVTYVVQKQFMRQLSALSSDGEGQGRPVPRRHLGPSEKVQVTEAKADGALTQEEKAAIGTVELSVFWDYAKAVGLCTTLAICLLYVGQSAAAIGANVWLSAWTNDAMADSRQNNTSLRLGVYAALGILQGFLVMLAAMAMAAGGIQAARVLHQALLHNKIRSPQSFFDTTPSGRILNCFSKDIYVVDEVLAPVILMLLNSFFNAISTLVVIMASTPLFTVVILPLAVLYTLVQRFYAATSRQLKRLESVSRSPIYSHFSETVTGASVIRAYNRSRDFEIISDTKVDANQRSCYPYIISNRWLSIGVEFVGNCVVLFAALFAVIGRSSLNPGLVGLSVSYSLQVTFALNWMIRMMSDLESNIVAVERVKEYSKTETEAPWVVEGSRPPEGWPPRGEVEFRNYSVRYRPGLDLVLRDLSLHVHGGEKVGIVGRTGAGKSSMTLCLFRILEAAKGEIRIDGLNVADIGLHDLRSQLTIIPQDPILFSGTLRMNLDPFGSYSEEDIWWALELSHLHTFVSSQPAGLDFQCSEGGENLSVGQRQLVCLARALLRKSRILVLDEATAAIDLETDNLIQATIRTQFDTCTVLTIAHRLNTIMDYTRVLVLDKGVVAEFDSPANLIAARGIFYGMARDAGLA

[6] = target: T5, ATP-binding cassette sub-family C member 4 (Homo sapiens, UniProt O15439); assay: Substrates of transporters of clinical importance in the absorption and disposition of drugs, MRP4
T5 sequence (O15439 whole entry): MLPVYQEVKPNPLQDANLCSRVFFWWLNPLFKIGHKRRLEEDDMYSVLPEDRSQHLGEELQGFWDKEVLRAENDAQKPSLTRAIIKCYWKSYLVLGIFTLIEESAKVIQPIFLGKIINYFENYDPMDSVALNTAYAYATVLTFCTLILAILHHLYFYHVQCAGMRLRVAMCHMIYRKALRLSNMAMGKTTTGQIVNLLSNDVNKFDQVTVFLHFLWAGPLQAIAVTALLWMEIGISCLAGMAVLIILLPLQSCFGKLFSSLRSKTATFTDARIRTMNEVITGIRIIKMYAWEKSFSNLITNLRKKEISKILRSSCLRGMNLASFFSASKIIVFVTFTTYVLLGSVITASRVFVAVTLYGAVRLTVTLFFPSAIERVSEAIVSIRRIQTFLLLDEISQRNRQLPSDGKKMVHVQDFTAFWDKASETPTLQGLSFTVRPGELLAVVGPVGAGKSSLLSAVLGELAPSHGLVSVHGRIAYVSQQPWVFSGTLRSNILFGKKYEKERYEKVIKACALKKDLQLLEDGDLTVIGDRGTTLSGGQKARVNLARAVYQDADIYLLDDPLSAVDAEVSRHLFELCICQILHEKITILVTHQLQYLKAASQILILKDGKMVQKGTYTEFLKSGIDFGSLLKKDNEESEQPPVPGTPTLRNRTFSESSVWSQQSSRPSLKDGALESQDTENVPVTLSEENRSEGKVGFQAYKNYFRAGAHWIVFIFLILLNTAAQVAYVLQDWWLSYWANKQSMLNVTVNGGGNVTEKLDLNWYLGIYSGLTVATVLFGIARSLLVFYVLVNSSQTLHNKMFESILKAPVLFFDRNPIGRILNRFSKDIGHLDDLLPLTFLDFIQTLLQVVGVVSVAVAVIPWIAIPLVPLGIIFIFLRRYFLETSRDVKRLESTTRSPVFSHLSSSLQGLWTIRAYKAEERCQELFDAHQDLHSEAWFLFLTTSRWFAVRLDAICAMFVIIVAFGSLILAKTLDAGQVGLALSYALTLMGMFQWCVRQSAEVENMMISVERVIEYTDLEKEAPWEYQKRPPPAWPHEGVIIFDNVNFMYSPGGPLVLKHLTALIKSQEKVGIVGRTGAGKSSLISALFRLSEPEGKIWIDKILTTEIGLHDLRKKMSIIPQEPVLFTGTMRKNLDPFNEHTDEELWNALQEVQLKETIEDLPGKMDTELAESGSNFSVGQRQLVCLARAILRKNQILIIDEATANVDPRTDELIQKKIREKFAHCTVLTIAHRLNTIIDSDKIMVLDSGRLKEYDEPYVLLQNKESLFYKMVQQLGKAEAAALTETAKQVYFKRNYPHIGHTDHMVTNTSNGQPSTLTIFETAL

[7] = target: T3, ATP-binding cassette sub-family C member 2; assay: Inhibitors of transporters of clinical importance in the absorption and disposition of drugs, MRP2
[8] = target: T4, ATP-binding cassette sub-family C member 3; assay: Inhibitors of transporters of clinical importance in the absorption and disposition of drugs, MPR3
[9] = target: T6, Solute carrier organic anion transporter family member 1B3 (Homo sapiens, UniProt Q9NPD5); assay: Substrates of transporters of clinical importance in the absorption and disposition of drugs, OATP1B3
T6 sequence (Q9NPD5 whole entry): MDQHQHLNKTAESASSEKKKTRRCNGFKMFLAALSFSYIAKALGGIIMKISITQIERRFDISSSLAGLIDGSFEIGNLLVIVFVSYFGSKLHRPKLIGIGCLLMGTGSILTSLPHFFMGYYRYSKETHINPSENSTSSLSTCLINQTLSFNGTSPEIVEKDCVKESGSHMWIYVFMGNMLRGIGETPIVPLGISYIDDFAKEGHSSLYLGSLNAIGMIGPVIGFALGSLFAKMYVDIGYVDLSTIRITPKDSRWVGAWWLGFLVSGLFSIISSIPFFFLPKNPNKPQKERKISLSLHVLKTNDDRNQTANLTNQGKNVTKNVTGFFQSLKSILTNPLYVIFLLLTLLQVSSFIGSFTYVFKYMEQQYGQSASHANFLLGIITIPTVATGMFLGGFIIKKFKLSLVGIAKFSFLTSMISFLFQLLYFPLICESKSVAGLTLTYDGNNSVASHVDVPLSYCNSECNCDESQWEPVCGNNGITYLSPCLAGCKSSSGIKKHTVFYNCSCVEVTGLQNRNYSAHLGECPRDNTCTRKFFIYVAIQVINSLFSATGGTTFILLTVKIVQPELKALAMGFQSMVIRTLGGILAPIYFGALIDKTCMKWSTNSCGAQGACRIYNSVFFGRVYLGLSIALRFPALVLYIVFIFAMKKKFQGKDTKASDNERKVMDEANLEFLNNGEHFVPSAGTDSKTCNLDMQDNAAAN

[10] = target: T7, Solute carrier organic anion transporter family member 2B1 (Homo sapiens, UniProt O94956); assay: Substrates of transporters of clinical importance in the absorption and disposition of drugs, OATP2B1
T7 sequence (O94956 whole entry): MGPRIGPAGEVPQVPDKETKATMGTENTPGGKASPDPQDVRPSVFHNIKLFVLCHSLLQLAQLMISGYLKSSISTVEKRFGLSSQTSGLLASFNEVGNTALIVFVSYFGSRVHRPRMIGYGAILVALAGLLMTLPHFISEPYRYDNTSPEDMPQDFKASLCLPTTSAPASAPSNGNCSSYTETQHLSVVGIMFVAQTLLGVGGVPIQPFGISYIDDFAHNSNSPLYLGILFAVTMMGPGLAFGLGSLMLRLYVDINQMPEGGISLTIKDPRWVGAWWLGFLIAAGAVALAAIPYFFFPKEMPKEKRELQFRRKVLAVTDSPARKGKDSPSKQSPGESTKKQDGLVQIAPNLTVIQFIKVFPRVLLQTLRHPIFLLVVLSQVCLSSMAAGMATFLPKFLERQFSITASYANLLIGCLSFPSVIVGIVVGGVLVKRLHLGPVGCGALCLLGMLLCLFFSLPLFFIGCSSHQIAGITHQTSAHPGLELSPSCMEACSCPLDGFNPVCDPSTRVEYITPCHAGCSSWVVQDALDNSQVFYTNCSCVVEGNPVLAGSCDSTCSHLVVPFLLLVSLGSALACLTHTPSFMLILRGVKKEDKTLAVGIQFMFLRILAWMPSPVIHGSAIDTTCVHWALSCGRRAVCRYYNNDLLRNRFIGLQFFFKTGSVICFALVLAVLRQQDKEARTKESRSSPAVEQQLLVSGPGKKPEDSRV

[11] = target: T8, Solute carrier organic anion transporter family member 1B1 (Homo sapiens, UniProt Q9Y6L6); assay: Substrates of transporters of clinical importance in the absorption and disposition of drugs, OATP1B1
T8 sequence (Q9Y6L6 whole entry): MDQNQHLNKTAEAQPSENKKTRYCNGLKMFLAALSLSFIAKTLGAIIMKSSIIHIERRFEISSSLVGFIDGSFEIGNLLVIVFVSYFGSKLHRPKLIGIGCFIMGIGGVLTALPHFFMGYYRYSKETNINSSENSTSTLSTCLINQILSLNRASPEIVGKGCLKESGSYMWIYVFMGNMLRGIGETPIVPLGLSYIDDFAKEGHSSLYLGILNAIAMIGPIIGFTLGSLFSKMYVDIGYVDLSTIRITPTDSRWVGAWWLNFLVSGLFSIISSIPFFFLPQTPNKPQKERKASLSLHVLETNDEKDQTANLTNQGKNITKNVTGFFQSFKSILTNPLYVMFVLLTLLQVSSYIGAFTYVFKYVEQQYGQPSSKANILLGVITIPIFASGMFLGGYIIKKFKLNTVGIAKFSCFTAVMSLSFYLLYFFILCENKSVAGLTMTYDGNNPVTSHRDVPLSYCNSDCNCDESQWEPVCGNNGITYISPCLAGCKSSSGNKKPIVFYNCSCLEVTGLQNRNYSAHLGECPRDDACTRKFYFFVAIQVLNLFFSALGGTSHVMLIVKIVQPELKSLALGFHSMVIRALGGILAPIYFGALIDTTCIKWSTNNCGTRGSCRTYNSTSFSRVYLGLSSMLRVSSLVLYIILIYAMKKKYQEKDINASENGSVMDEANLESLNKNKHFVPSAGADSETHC

[12] = target: T8, Solute carrier organic anion transporter family member 1B1; assay: Inhibitors of transporters of clinical importance in the absorption and disposition of drugs, OATP1B1
[13] = target: T2, Solute carrier organic anion transporter family member 1A2; assay: Inhibitors of transporters of clinical importance in the absorption and disposition of drugs, OATP1A2

Activity [1]: transporter inhibitor
SMILES: C[C@]12CC[C@@H]3c4ccc(O)cc4CC[C@H]3[C@@H]1CC[C@@H]2O [ESTRADIOL]

Activity [2]: transporter substrate
Activity [3]: transporter substrate
Activity [4]: transporter substrate
Activity [5]: transporter substrate
Activity [6]: transporter substrate
SMILES: CN(Cc1cnc2nc(N)nc(N)c2n1)c1ccc(C(=O)N[C@@H](CCC(=O)O)C(=O)O)cc1 [METHOTREXATE]

Activity [1]: transporter inhibitor
SMILES: C[C@]12CC[C@@H]3c4ccc(O)cc4CC[C@H]3[C@@H]1CCC2=O [ESTRONE]

Activity [7]: transporter inhibitor
Activity [8]: transporter inhibitor
SMILES: Nc1nc(=O)n([C@@H]2CS[C@H](CO)O2)cc1F [EMTRICITABINE]

Activity [9]: transporter substrate
Activity [2]: transporter substrate
Activity [10]: transporter substrate
Activity [5]: transporter substrate
SMILES: CC(C)(C(=O)O)c1ccc(C(O)CCCN2CCC(C(O)(c3ccccc3)c3ccccc3)CC2)cc1 (stereo unspecified) [FEXOFENADINE]

Activity [7]: transporter inhibitor
Activity [8]: transporter inhibitor
SMILES: CC(C)Nc1cccnc1N1CCN(C(=O)c2cc3cc(NS(C)(=O)=O)ccc3[nH]2)CC1 [DELAVIRDINE]

SMILES: C[C@]12CC[C@@H]3c4ccc(O)cc4CC[C@H]3[C@@H]1CC[C@@H]2O[C@@H]1O[C@H](C(=O)O)[C@@H](O)[C@H](O)[C@H]1O [ESTRADIOL 17B GLUCURONIDE]
Activity [11]: transporter substrate
Activity [9]: transporter substrate
Activity [5]: transporter substrate

SMILES: COc1ccc2c3c([nH]c2c1)[C@H](C=C(C)C)N1C(=O)[C@@H]2CCCN2C(=O)[C@@H]1C3 [FUMITREMORGIN]
Activity [1]: transporter inhibitor

Activity [12]: transporter inhibitor
Activity [13]: transporter inhibitor
SMILES: CC(C)(C)NC(=O)[C@@H]1C[C@@H]2CCCC[C@@H]2CN1C[C@@H](O)[C@H](Cc1ccccc1)NC(=O)[C@H](CC(N)=O)NC(=O)c1ccc2ccccc2n1
